Assay results: publication PMC7318243, “Computationally Empowered Workflow Identifies Novel Covalent Allosteric Binders for KRAS^G12C” (Chemmedchem, 2020)

Key:
KRAS^G12C = target: T1, KRAS^G12C (Homo sapiens, UniProt P01116, G12C); experiment: Biochemical assay: KRAS^G12C activation by SOS1CAT (HTRF, fluorescent GTP loading); settings: for IC50: 180 min pre-incubation with KRAS before addition of SOS1
T1 construct: KRASG12C (aa 1–169, G12C) were produced for the biochemical assay; made in house
Method: (§1) One of the most synthetically accessible compounds, 1,6‐naphthyridin‐5(6H)‐one (1), was prepared (Table 1; Scheme S1). Structurally close to 1, isoquinolin‐1(2H)‐one 2 derivatives were also considered for the exploration of structure‐activity relationships (SAR). To measure the proportion of inhibitor reacting with Cys12 of the KRAS^G12C mutant, the bound/unbound protein ratio was quantified by mass spectrometry (MS). Then, the inhibition potency of these compounds towards KRAS^G12C was evaluated in biochemical assays measuring the activation of GDP‐bound KRAS^G12C or KRAS^WT by SOS1.19 […]
(§2) 3.3 Biochemical activity assays
(§3) Measurement of (i) KRASG12C activation by SOS1CAT and (ii) wild-type KRAS activation by SOS1CAT was performed following the previously described protocol, [19] with a pre-incubation time of the test compound with KRAS proteins extended to 180 min before addi tion of SOS1.
(§4) This assay quantifies SOS1 CAT mediated loading of KRAS G12C–GDP with a fluorescent GTP analogue. Detection of successful loading was achieved by measuring resonance energy transfer from anti-GST-terbium (FRET donor) bound to GST -KRASG12C to the loaded fluorescent GTP analogue (FRET acceptor). The fluorescent GTP analogue EDA –GTP–DY-647P1 [2'/3'-O-(2-aminoethyl-carbamoyl)guanosine-5'-triphosphate labelled with DY-647P1 (Dyomics GmbH, Germany)] was synthesized by Jena Bioscience (Germany) a nd supplied as a 1 mM aqueous solution. A KRASG12C working solution was prepared in assay buffer [10 mM HEPES pH 7.4 (AppliChem), 150 mM NaCl (Sigma), 5 mM MgCl2 (Sigma), 1 mM DTT (Thermo Fisher), 0.05% BSA Fraction V pH 7.0 (ICN Biomedicals), 0.0025% (v/v) Igepal (Sigma)] containing 100 nM GST-KRASG12C and 2 nM anti-GST-terbium (Cisbio, France). A SOS1 CAT working solution was prepared in an assay buffer containing 20 nM SOS1CAT and 200 nM EDA–GTP–DY-647P1. An inhibitor control solution was prepared in an assay buffer containing 200 nM EDA–GTP–DY-647P1 without […]
SOS1CAT. All steps of the assay were performed at 20 °C. A volume of 2.5 µL of the KRASG12C working solution was added to all wells of the test plate using a Multidrop dispenser (Thermo LabSystems). After 180 min, 2.5 µL of the SOS1CAT working solution was added to all wells, except for the inhibitor control solution wells. After 30 min incubation, HTRF was measured. […]
(§5) SYNAPT G2-S quadrupole time-of-flight mass spectrometer connected to a Waters nanoAcquity UPLC system. Samples were loaded on a 2.1 x 5 mm mass prep C4 guard column (Waters) and desalted with a short grad ient (3 min) of increasing concentrations of acetonitrile at a flow rate of 100 µL/min. Spectra were analyzed by using MassLynx v4.1 software and deconvoluted with the MaxEnt1 algorithm. Percent of conversion was determined by the ratio of signal intensiti es of apo-KRAS and KRAS + inhibitor.

[1] = target: T2, KRAS^G12C (recombinant KRAS mutant G12C, C51S, C80L, C118S) (Homo sapiens, UniProt P01116, C118S/C51S/C80L/G12C); experiment: Covalent binding assay by mass spectrometry (intact mass, % covalent adduct); settings: for MS assay [% binding] (KRAS^G12C bound fraction): 25 µM protein, 25 µM compound, room temperature, 2 h
T2 construct: made in house
Method: as §1
3.4 Covalent binding assay by mass spectrometry
The percentage of covalent adduct formation at KRAS G12C was determined by intact mass determination. To this end, 25 µM recombinant KRAS mutant (G12C , C51S, C80L, C118S) was incubated with 25 µM compound (1% v/v DMSO final concentration) in 50 mM Tris, pH 8.0, 50 mM NaCl at room temperature for 2 h. Reaction mixture (20 µL) was acidified by addi tion of 4% v/v TFA (4 µL). LC-MS analysis was performed using a Waters SYNAPT G2 -S quadrupole time -of-flight mass spectrometer connected to a Waters nanoA CQUITY UPLC system. Samples were loaded onto a 2.1 × 5 mm MassPrep C4 guard column (Waters) and desalted with a short gradient (3 min) of increasing concentration of acetonitrile at a flow rate of 100 µL/min. Spectra were analyzed by using MassLynx v4.1 software and deconvoluted with the MaxEnt1 algorithm. Percent conversion was determined by the ratio of signal intensities of […] and KRASG12C + inhibitor. […]

KRAS^WT = target: T3, KRAS^WT (Homo sapiens, UniProt P01116); experiment: Biochemical assay: KRAS^WT activation by SOS1CAT (HTRF, fluorescent GTP loading); settings: 180 min pre-incubation with KRAS before addition of SOS1
T3 construct: The proteins KRASWT (aa 1–169, wild type), SOS1CAT (aa 564–); made in house
Method: as §1, §2, §3, §4
SOS1CAT. All steps of the assay were performed at 20 °C. A volume of 2.5 µL of the KRASG12C working solution was added to all wells of the test plate using a Multidrop dispenser (Thermo LabSystems). After 180 min, 2.5 µL of the SOS1CAT working solution was added to all wells, except for the inhibitor control solution wells. After 30 min incubation, HTRF was measured.
In the KRASWT activation by SOS1cat assay, human SOS1CAT mediated loading of GST-KRASWT– GDP was quantified with a fluorescent GTP analogue. The assay was performed as described above for the KRASG12C activation. […]
as §5

SMILES	IC50 (KRAS^G12C)	MS assay [% binding] (KRAS^G12C bound fraction) [1]	IC50 (KRAS^WT)	KRAS^G12C activity, in words (KRAS^G12C)	Ability to bind / react with Cys12 of KRAS^G12C, in words [1]
C=CC(=O)N1CCC(c2cc3ccc(-c4cc(F)cc(F)c4)cc3c(=O)[nH]2)C1 (stereo not drawn) [Compound 4, 7-(3,5-Difluorophenyl)-3-[1-(prop-2-enoyl)pyrrolidin-3-yl]isoquinolin-1(2H)-one]	> 20 µM	0%	> 20 µM	–	–
C=CC(=O)N1CCC(c2cc3ccc(-c4cccc5ncccc45)cc3c(=O)[nH]2)C1 (stereo not drawn) [Compound 6, 3-[1-(Prop-2-enoyl)pyrrolidin-3-yl]-7-(quinolin-5-yl)isoquinolin-1(2H)-one]	> 16 µM	20%	> 20 µM	–	–
C=CC(=O)N1CCC(c2cc3cc(Cl)c(-c4c(O)cccc4F)cc3c(=O)[nH]2)C1 (stereo not drawn) [Compound 7, 6-Chloro-7-(2-fluoro-6-hydroxyphenyl)-3-[1-(prop-2-enoyl)pyrrolidin-3-yl]isoquinolin-1(2H)-one]	14.6 µM	51%	> 20 µM	–	–
C=CC(=O)N1CCC(c2cc3ccc(-c4c(O)cccc4F)cc3c(=O)[nH]2)CC1 [Compound 8]	> 20 µM	0%	> 20 µM	inactive	–
C=CC(=O)N1CCCC(c2cc3ccc(-c4c(O)cccc4F)cc3c(=O)[nH]2)C1 (stereo not drawn) [Compound 9]	> 20 µM	0%	> 20 µM	inactive	–
C=CC(=O)N1CCC(c2cc3ccc(-c4c(O)cccc4F)cc3c(=O)n2C)C1 (stereo not drawn) [Compound 10]	> 20 µM	11%	> 20 µM	inactive	inability to bind KRAS^G12C
C=CC(=O)N1CCC(c2cc3cc(O)c(-c4ncccc4F)cc3c(=O)[nH]2)C1 (stereo not drawn) [Compound 12]	–	0%	–	–	unable to react with Cys12 of KRAS^G12C

The remaining compounds from weak to strong by IC50 (KRAS^G12C), led by results:

IC50 (KRAS^G12C)	MS assay [% binding] (KRAS^G12C bound fraction) [1]	IC50 (KRAS^WT)	KRAS^G12C activity, in words (KRAS^G12C)	Ability to bind / react with Cys12 of KRAS^G12C, in words [1]	SMILES
8 µM	60%	> 20 µM	–	–	C=CC(=O)N1CCC(c2cc3ccc(-c4ccccc4CC)cc3c(=O)[nH]2)C1 (stereo not drawn) [Compound 5, 7-(2-Ethylphenyl)-3-[1-(prop-2-enoyl)pyrrolidin-3-yl]isoquinolin-1(2H)-one]
5 µM	34%	> 20 µM	–	–	C=CC(=O)N1CCC(c2cc3ccc(-c4ccc(F)cc4F)cc3c(=O)[nH]2)C1 (stereo not drawn) [Compound 3, 7-(2,4-Difluorophenyl)-3-[1-(prop-2-enoyl)pyrrolidin-3-yl]isoquinolin-1(2H)-one]
4.9 µM	59%	> 20 µM	–	–	C=CC(=O)N1CCC(c2nc3ccc(-c4c(O)cccc4F)cc3c(=O)[nH]2)C1 (stereo not drawn) [Compound 11, 6-(2-Fluoro-6-hydroxyphenyl)-2-[1-(prop-2-enoyl)pyrrolidin-3-yl]quinazolin-4(3H)-one]
